Measurements as given in patent US9415055B2, “Cyclic amines” (H. Lundbeck A/S, priority 2012, dated 2016).

Target: P2X7 receptor (Homo sapiens (Human), UniProt Q99572)
Assay: P2X7 FLIPR assay: antagonism of BzATP response in 293 HEK cells stably expressing P2X7 receptor
Assay type: cell-based
Conditions: FLIPR fluorescence (Fluo-4), agonist BzATP, 293 HEK cells stably transfected with P2X7 receptor
Experimental: Cells were plated to cell density of approximately 15,000 cells/well in 384-well assay plates (50 μl/well) with 1.5% low serum media (DMEM, 1.5% BCS, 1% L-glut (2 mM), 1% P/S).
Cells were plated to cell density of approximately 15,000 cells/well in 384-well assay plates (50 μl/well) with 1.5% low serum media (DMEM, 1.5% FBS, 1% L-glut (2 mM), 10 mM HEPES, 1% P/S). Cells were plated 24 hours prior to assay. Cells expressing human, rat or mouse P2X7 receptor were assayed in the following manner.
Fluo-4 NW dye mix (Molecular Probes, Inc., Eugene, Oreg., USA) was prepared in buffer (see manufacturer's instructions). Cell plates were removed from the 37° C. incubator, the media discarded and then 30 μL of dye was added to each well. Plates were placed in the 37° C., non-CO2 incubator for 30 minutes and then room temperature for 30 minutes.
Compound mixtures (A) were added to assay plates containing cells and placed at room temperature for 30 minutes, then BzATP (B) was added. Fluorescence was read using the Tetra FLIPR® (Molecular Devices, Inc., Sunnyvale, Calif., USA) and IC50 values were calculated by standard methods to determine antagonist activity.

Chain of P2X7 receptor (Q99572 whole entry): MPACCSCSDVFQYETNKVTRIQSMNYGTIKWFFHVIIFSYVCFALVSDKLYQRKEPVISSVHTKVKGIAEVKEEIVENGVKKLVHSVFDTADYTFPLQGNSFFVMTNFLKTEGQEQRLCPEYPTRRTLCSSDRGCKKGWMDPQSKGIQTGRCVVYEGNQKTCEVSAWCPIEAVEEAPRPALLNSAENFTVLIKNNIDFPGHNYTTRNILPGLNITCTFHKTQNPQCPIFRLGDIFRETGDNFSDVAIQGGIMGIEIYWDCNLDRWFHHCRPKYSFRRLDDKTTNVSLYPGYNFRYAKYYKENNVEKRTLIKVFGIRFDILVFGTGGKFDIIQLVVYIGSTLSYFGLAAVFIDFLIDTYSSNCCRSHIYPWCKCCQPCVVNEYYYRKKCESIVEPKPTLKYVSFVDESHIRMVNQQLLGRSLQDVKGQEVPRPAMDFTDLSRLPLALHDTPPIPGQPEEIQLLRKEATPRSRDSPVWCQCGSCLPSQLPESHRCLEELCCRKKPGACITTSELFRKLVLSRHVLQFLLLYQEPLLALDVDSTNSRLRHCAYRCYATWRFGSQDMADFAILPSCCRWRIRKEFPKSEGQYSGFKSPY

| IC50 | SMILES |
| --- | --- |
| 280 nM | Cc1ncc(C(CNC(=O)c2c(F)cccc2Cl)N2CCCC(F)(F)C2)cn1 (single isomer, unassigned; (-)) [(−)2-chloro-N-[2-(3,3-difluoro-1-piperidyl)-2-(2-methylpyrim] [(−)2-chloro-6-fluoro-N-(2-(3,3-difluoropiperidin-1-yl)-2-(2-methylpyrimidin-5-yl)ethyl)benzamide] |
| 19 nM | Cc1ncc(C(CNC(=O)c2c(Cl)cccc2Cl)N2CCC(F)(F)CC2)cn1 (single isomer, unassigned; (+)) [(+)2,6-dichloro-N-[2-(4,4-difluoro-1-piperidyl)-2-(2-methylp] [(+)2,6-dichloro-N-(2-(4,4-difluoropiperidin-1-yl)-2-(2-methylpyrimidin-5-yl)ethyl)benzamide] |
| 3000 nM | Cc1ccc(Cl)c(C(=O)NCC(c2cccnc2)N2CCOCC2)c1 (stereo not shown) [2-Chloro-5-methyl-N-(2-morpholin-4-yl-2-pyridin-3-yl-ethyl)-benzamide] |
| 5.5 nM | O=C(NCC(c1ccc(C(F)(F)F)nc1)N1CCOCC1)c1cccc(Cl)c1Cl (single isomer, unassigned; (+)) [(+)2,3-dichloro-N-[2-morpholino-2-[6-(trifluoromethyl)-3-pyr] [(+)2,3-Dichloro-N-[2-morpholino-2-[6-(trifluoromethyl)-3-pyridyl]ethyl]benzamide] |
| 4.8 nM | O=C(NCC(c1cnc(C(F)F)nc1)N1CCOCC1)c1cccc(F)c1Cl (single isomer, unassigned; (+)) [(+)2-chloro-N-[2-[2-(difluoromethyl)pyrimidin-5-yl]-2-morpho] [(+)2-chloro-3-fluoro-N-(2-(2-(difluoromethyl)pyrimidin-5-yl)-2-morpholinoethyl)benzamide] |
| 5.5 nM | O=C(NCC(c1ccc(C(F)F)nc1)N1CCC(F)(F)CC1)c1c(Cl)cccc1Cl (single isomer, unassigned; (-)) [(−)2,6-dichloro-N-[2-[6-(difluoromethyl)-3-pyridyl]-2-(4,4-d] [(−)2,6-dichloro-N-(2-(2-(difluoromethyl)pyridin-5-yl)-2-(4,4-difluoropiperidin-1-yl)ethyl)benzamide] |
| 110 nM | Cc1ccc(C(CNC(=O)c2c(F)cccc2Cl)N2CCC(F)(F)CC2)cn1 (single isomer, unassigned; (+)) [(+)2-chloro-N-[2-(4,4-difluoro-1-piperidyl)-2-(6-methyl-3-py] [(+)2-chloro-N-(2-(4,4-difluoropiperidin-1-yl)-2-(6-methylpyridin-3-yl)ethyl)-6-fluorobenzamide] |
| 110 nM | N#Cc1ccc(Cl)c(C(=O)NCC(c2ccc(Cl)cc2)N2CCOCC2)c1 (single isomer, unassigned; (-)) [(−)2-chloro-N-[2-(4-chlorophenyl)-2-morpholino-ethyl]-5-cyan] [(−)2-chloro-N-(2-(4-chlorophenyl)-2-morpholinoethyl)-5-cyanobenzamide] |
| 330 nM | Cc1ncc(C(CNC(=O)c2cccc(F)c2Cl)N2CCCOCC2)cn1 (stereo not shown) [2-chloro-3-fluoro-N-(2-(2-methylpyrimidin-5-yl)-2-(1,4-oxazepan-4-yl)ethyl)benzamide] |
| 6.4 nM | O=C(NCC(c1cnc(C(F)(F)F)nc1)N1CCC(F)(F)CC1)c1ccc(Cl)cc1Cl (single isomer, unassigned; (-)) [(−)2,4-dichloro-N-[2-(4,4-difluoro-1-piperidyl)-2-[2-(triflu] [(−)2,4-dichloro-N-(2-(4,4-difluoropiperidin-1-yl)-2-(2-(trifluoromethyl)pyrimidin-5-yl)ethyl)benzamide] |
| 5.1 nM | Cc1ncc(C(CNC(=O)c2cc(F)cc(Cl)c2Cl)N2CCC(F)(F)CC2)cn1 (single isomer, unassigned; (+)) [(+)2,3-dichloro-N-[2-(4,4-difluoro-1-piperidyl)-2-(2-methylp] [(+)2,3-dichloro-5-fluoro-N-(2-(4,4-difluoropiperidin-1-yl)-2-(2-methylpyrimidin-5-yl)ethyl)benzamide] |
| 1.7 nM | O=C(NCC(c1ccc(C(F)(F)F)nc1)N1CCC(F)(F)CC1)c1cccc(F)c1Cl (single isomer, unassigned; (+)) [(+)2-chloro-N-[2-(4,4-difluoro-1-piperidyl)-2-[6-(trifluorom] [(+)2-chloro-N-(2-(4,4-difluoropiperidin-1-yl)-2-(2-(trifluoromethyl)pyridin-5-yl)ethyl)-3-fluorobenzamide] |
| 420 nM | COc1ccc(C(CNC(=O)c2cccc(C)c2C)N2CCCCC2)cc1 (stereo not shown) [N-[2-(4-Methoxy-phenyl)-2-piperidin-1-yl-ethyl]-2,3-dimethyl-benzamide] |
| 2700 nM | Cc1cccc(C(=O)NCC(c2cccnc2)N2CCOCC2)c1C (stereo not shown) [2,3-Dimethyl-N-(2-morpholin-4-yl-2-pyridin-3-yl-ethyl)-benzamide] |
| 24 nM | Cc1ncc(C(CNC(=O)c2ccccc2Cl)N2CCC(F)(F)CC2)cn1 (single isomer, unassigned; (-)) [(−)2-chloro-N-[2-(4,4-difluoro-1-piperidyl)-2-(2-methylpyrim] [(−)2-chloro-N-[2-(4,4-difluoro-1-piperidyl)-2-(2-methylpyrimidin-5-yl)ethyl]benzamide] |
| 8.7 nM | O=C(NCC(c1ccc(C(F)F)nc1)N1CCC(F)(F)CC1)c1c(Cl)cccc1Cl (single isomer, unassigned; (+)) [(+)2,6-dichloro-N-[2-[6-(difluoromethyl)-3-pyridyl]-2-(4,4-d] [(+)2,6-dichloro-N-(2-(2-(difluoromethyl)pyridin-5-yl)-2-(4,4-difluoropiperidin-1-yl)ethyl)benzamide] |
| 26 nM | Cn1cc(C(CNC(=O)c2cc(F)cc(Cl)c2Cl)N2CCC(F)(F)CC2)cn1 (single isomer, unassigned; (-)) [(−)2,3-dichloro-N-[2-(4,4-difluoro-1-piperidyl)-2-(1-methylp] [(−)2,3-dichloro-5-fluoro-N-(2-(4,4-difluoropiperidin-1-yl)-2-(1-methyl-1H-pyrazol-4-yl)ethyl)benzamide] |
| 6.1 nM | O=C(NCC(c1cnc(C(F)(F)F)nc1)N1CCC(F)CC1)c1c(Cl)cccc1Cl (single isomer, unassigned; (+)) [(+)2,6-dichloro-N-[2-(4-fluoro-1-piperidyl)-2-[2-(trifluorom] [(+)2,6-dichloro-N-(2-(4-fluoropiperidin-1-yl)-2-(2-(trifluoromethyl)pyrimidin-5-yl)ethyl)benzamide] |
| 2.6 nM | COc1cccc(C(=O)NCC(c2ccc(F)cc2)N2CCC(F)(F)CC2)c1Cl (single isomer, unassigned; (-)) [(−)2-chloro-N-(2-(4,4-difluoropiperidin-1-yl)-2-(4-fluorophenyl)ethyl)-3-methoxybenzamide] |
| 12 nM | O=C(NCC(c1ccc(C(F)(F)F)nc1)N1CCOCC1)c1cccc(C(F)(F)F)c1Cl (single isomer, unassigned; (-)) [(−)2-chloro-N-[2-morpholino-2-[6-(trifluoromethyl)-3-pyridyl] [(−)2-Chloro-N-[2-morpholino-2-[6-(trifluoromethyl)-3-pyridyl]ethyl]-3-(trifluoromethyl)benzamide] |
| 1000 nM | Cc1ncc(C(CNC(=O)c2cccc(Cl)c2Cl)N2CCC(C)C2)cn1 (stereo not shown) [2,3-dichloro-N-(2-(2-methylpyrimidin-5-yl)-2-(3-methylpyrrolidin-1-yl)ethyl)benzamide] |
| 12 nM | COc1cccc(C(=O)NCC(c2cnc(C)nc2)N2CCC(F)(F)CC2)c1Cl (single isomer, unassigned; (+)) [(+)2-chloro-N-[2-(4,4-difluoro-1-piperidyl)-2-(2-methylpyrim] [(+)2-chloro-3-methoxy-N-(2-(4,4-difluoropiperidin-1-yl)-2-(2-methylpyrimidin-5-yl)ethyl)benzamide] |
| 4.8 nM | COc1cccc(C(=O)NCC(c2cnc(C(F)(F)F)nc2)N2CCC(F)(F)CC2)c1Cl (single isomer, unassigned; (-)) [(−)2-chloro-N-[2-(4,4-difluoro-1-piperidyl)-2-[2-(trifluorom] [(−)2-chloro-N-(2-(4,4-difluoropiperidin-1-yl)-2-(2-(trifluoromethyl)pyrimidin-5-yl)ethyl)-3-methoxybenzamide] |
| 9.6 nM | O=C(NCC(c1cnc(C(F)F)nc1)N1CCOCC1)c1cccc(Cl)c1Cl (single isomer, unassigned; (-)) [(−)2,3-dichloro-N-[2-[2-(difluoromethyl)pyrimidin-5-yl]-2-mo] [(−)2,3-dichloro-N-(2-(2-(difluoromethyl)pyrimidin-5-yl)-2-morpholinoethyl)benzamide] |
| 12 nM | O=C(NCC(c1cnc(C(F)(F)F)nc1)N1CCOCC1)c1ccc(Cl)cc1Cl (stereo not shown) [2,4-dichloro-N-(2-morpholino-2-(2-(trifluoromethyl)pyrimidin-5-yl)ethyl)benzamide] |
| 5.6 nM | O=C(NCC(c1cnc(C(F)(F)F)nc1)N1CCC(F)(F)CC1)c1ccc(Cl)cc1Cl (single isomer, unassigned; (+)) [(+)2,4-dichloro-N-[2-(4,4-difluoro-1-piperidyl)-2-[2-(triflu] [(+)2,4-dichloro-N-(2-(4,4-difluoropiperidin-1-yl)-2-(2-(trifluoromethyl)pyrimidin-5-yl)ethyl)benzamide] |
| 1.8 nM | O=C(NCC(c1ccc(C(F)(F)F)nc1)N1CCC(F)(F)CC1)c1ccccc1Cl (stereo not shown) [2-Chloro-N-[2-(4,4-difluoro-1-piperidyl)-2-[6-(trifluoromethyl)-3-pyridyl]ethyl]benzamide] |

| SMILES | IC50 |
| --- | --- |
| O=C(NCC(c1ccc(Cl)cc1)N1CCCC1)c1cccc(Cl)c1Cl (stereo not shown) [2,3-dichloro-N-(2-(4-chlorophenyl)-24 pyrrolidin-1-yl)ethyl)benzamide] | 1800 nM |
